Laboratory results from the NIST ThermoML archive (doi:10.1021/je700281z).
Where “and” joins values, the source holds several entries; their conditions need not be identical. Equal values may be shown once. Numbers after ± are expanded uncertainties.

Experiments:
[1] = xn = mol fraction of the nth substance listed; conditions: 101 kPa, Liquid
[2] = 101.33 kPa, Liquid; for speed of sound: sound analyzer

CCCCOCCOCCO [3,6-dioxa-1-decanol] + CCCCO
[1]
Conditions	mass density [kg/m3]
293.15 K, x1 = 0.1013	834.791 ± 0.82
293.15 K, x1 = 0.1505	845.543 ± 0.81
293.15 K, x1 = 0.2017	855.876 ± 0.79
293.15 K, x1 = 0.2529	865.45 ± 0.78
293.15 K, x1 = 0.3005	873.704 ± 0.78
293.15 K, x1 = 0.3516	881.978 ± 0.78
293.15 K, x1 = 0.4507	896.487 ± 0.79
293.15 K, x1 = 0.5005	903.11 ± 0.81
293.15 K, x1 = 0.5506	909.377 ± 0.82
293.15 K, x1 = 0.6036	915.608 ± 0.84
293.15 K, x1 = 0.6493	920.67 ± 0.86
293.15 K, x1 = 0.7	925.984 ± 0.89
293.15 K, x1 = 0.7292	928.912 ± 0.91
293.15 K, x1 = 0.749	930.843 ± 0.92
293.15 K, x1 = 0.8483	939.967 ± 0.99
298.15 K, x1 = 0.0521	819.296 ± 0.86
298.15 K, x1 = 0.15	841.555 ± 0.82
298.15 K, x1 = 0.2022	852.057 ± 0.8
298.15 K, x1 = 0.2535	861.607 ± 0.8
298.15 K, x1 = 0.301	869.838 ± 0.79
298.15 K, x1 = 0.3487	877.538 ± 0.79
298.15 K, x1 = 0.4028	885.726 ± 0.8
298.15 K, x1 = 0.4536	892.882 ± 0.8
298.15 K, x1 = 0.6017	911.346 ± 0.85
298.15 K, x1 = 0.6501	916.714 ± 0.87
298.15 K, x1 = 0.7003	921.969 ± 0.9
298.15 K, x1 = 0.7486	926.743 ± 0.93
298.15 K, x1 = 0.7986	931.465 ± 0.96
298.15 K, x1 = 0.8491	935.973 ± 1
303.15 K, x1 = 0.0462	813.931 ± 0.87
303.15 K, x1 = 0.0516	815.259 ± 0.87
303.15 K, x1 = 0.1015	827.004 ± 0.85
303.15 K, x1 = 0.1522	837.999 ± 0.83
303.15 K, x1 = 0.2002	847.641 ± 0.82
303.15 K, x1 = 0.2536	857.548 ± 0.81
303.15 K, x1 = 0.3008	865.688 ± 0.8
303.15 K, x1 = 0.3513	873.826 ± 0.8
303.15 K, x1 = 0.3997	881.12 ± 0.81
303.15 K, x1 = 0.4513	888.394 ± 0.81
303.15 K, x1 = 0.5047	895.427 ± 0.83
303.15 K, x1 = 0.552	901.283 ± 0.84
303.15 K, x1 = 0.6546	912.925 ± 0.89
303.15 K, x1 = 0.6992	917.561 ± 0.91
303.15 K, x1 = 0.7074	918.41 ± 0.91
303.15 K, x1 = 0.7476	922.362 ± 0.94
303.15 K, x1 = 0.7976	927.051 ± 0.97
303.15 K, x1 = 0.7988	927.176 ± 0.97
303.15 K, x1 = 0.8959	935.611 ± 1

CCOCCOCCO [3,6-dioxa-1-octanol]
[2]
Conditions	mass density [kg/m3]	speed of sound [m/s]
293.15 K	987.876 ± 1.1	1392.3 ± 2
298.15 K	983.336 ± 1.1	1374.3 ± 2
303.15 K	978.788 ± 1.1	1356.6 ± 2

CCOCCOCCO [3,6-dioxa-1-octanol] + CCCCO
[1]
Conditions	mass density
293.15 K, x1 = 0.0519	823.011 ± 0.85 kg/m3
293.15 K, x1 = 0.1029	835.52 ± 0.82 kg/m3
293.15 K, x1 = 0.1999	857.73 ± 0.79 kg/m3
293.15 K, x1 = 0.2989	878.535 ± 0.77 kg/m3
293.15 K, x1 = 0.3513	888.856 ± 0.76 kg/m3
293.15 K, x1 = 0.4015	898.337 ± 0.76 kg/m3
293.15 K, x1 = 0.4514	907.402 ± 0.77 kg/m3
293.15 K, x1 = 0.5492	924.169 ± 0.78 kg/m3
293.15 K, x1 = 0.5966	931.866 ± 0.8 kg/m3
293.15 K, x1 = 0.65	940.215 ± 0.82 kg/m3
293.15 K, x1 = 0.7002	947.765 ± 0.84 kg/m3
293.15 K, x1 = 0.7009	947.885 ± 0.84 kg/m3
293.15 K, x1 = 0.7015	947.962 ± 0.84 kg/m3
293.15 K, x1 = 0.7952	961.375 ± 0.9 kg/m3
293.15 K, x1 = 0.8477	968.507 ± 0.94 kg/m3
293.15 K, x1 = 0.8489	968.677 ± 0.94 kg/m3
293.15 K, x1 = 0.8966	974.953 ± 0.98 kg/m3
293.15 K, x1 = 0.95	981.736 ± 1 kg/m3
298.15 K, x1 = 0.0512	818.966 ± 0.86 kg/m3
298.15 K, x1 = 0.1017	831.315 ± 0.83 kg/m3
298.15 K, x1 = 0.1026	831.513 ± 0.83 kg/m3
298.15 K, x1 = 0.151	842.801 ± 0.81 kg/m3
298.15 K, x1 = 0.1733	847.84 ± 0.81 kg/m3
298.15 K, x1 = 0.2524	864.926 ± 0.79 kg/m3
298.15 K, x1 = 0.35	884.465 ± 0.77 kg/m3
298.15 K, x1 = 0.4025	894.359 ± 0.77 kg/m3
298.15 K, x1 = 0.449	902.763 ± 0.78 kg/m3
298.15 K, x1 = 0.452	903.287 ± 0.78 kg/m3
298.15 K, x1 = 0.4995	911.551 ± 0.78 kg/m3
298.15 K, x1 = 0.5992	927.958 ± 0.81 kg/m3
298.15 K, x1 = 0.6015	928.324 ± 0.81 kg/m3
298.15 K, x1 = 0.6487	935.658 ± 0.83 kg/m3
298.15 K, x1 = 0.7001	943.37 ± 0.85 kg/m3
298.15 K, x1 = 0.7491	950.466 ± 0.88 kg/m3 and 950.476 ± 0.88 kg/m3
298.15 K, x1 = 0.8	957.603 ± 0.91 kg/m3
298.15 K, x1 = 0.8086	958.782 ± 0.92 kg/m3
298.15 K, x1 = 0.8491	964.231 ± 0.95 kg/m3
298.15 K, x1 = 0.8982	970.663 ± 0.99 kg/m3
303.15 K, x1 = 0.0507	814.94 ± 0.87 kg/m3
303.15 K, x1 = 0.1007	827.098 ± 0.85 kg/m3
303.15 K, x1 = 0.1488	838.296 ± 0.83 kg/m3
303.15 K, x1 = 0.1539	839.456 ± 0.83 kg/m3
303.15 K, x1 = 0.1998	849.635 ± 0.81 kg/m3
303.15 K, x1 = 0.2025	850.231 ± 0.81 kg/m3
303.15 K, x1 = 0.2526	860.864 ± 0.8 kg/m3
303.15 K, x1 = 0.3035	871.188 ± 0.79 kg/m3
303.15 K, x1 = 0.3042	871.343 ± 0.79 kg/m3
303.15 K, x1 = 0.3492	880.114 ± 0.79 kg/m3
303.15 K, x1 = 0.4027	890.141 ± 0.78 kg/m3
303.15 K, x1 = 0.4543	899.435 ± 0.79 kg/m3
303.15 K, x1 = 0.5504	915.759 ± 0.81 kg/m3
303.15 K, x1 = 0.5525	916.103 ± 0.81 kg/m3
303.15 K, x1 = 0.5539	916.33 ± 0.81 kg/m3
303.15 K, x1 = 0.6	923.723 ± 0.82 kg/m3
303.15 K, x1 = 0.6019	924.03 ± 0.82 kg/m3
303.15 K, x1 = 0.7506	946.255 ± 0.89 kg/m3
303.15 K, x1 = 0.8006	953.229 ± 0.92 kg/m3
303.15 K, x1 = 0.8496	959.837 ± 0.96 kg/m3
303.15 K, x1 = 0.949	972.571 ± 1 kg/m3

CCCCO [butan-1-ol]
[2]
Conditions	mass density [kg/m3]	speed of sound [m/s]
293.15 K	809.644 ± 0.47	1256.7 ± 0.54
298.15 K	805.842 ± 0.47	1239.2 ± 0.54
303.15 K	801.995 ± 0.47	1222.7 ± 0.54
